Assay results from patent US7968584B2, “Substituted arylpyrazoles” (Pfizer Inc., priority 2005, dated 2011).

Each compound was assayed on Ctenocephalides felis (assay: flea membrane feed test). Settings: Ctenocephalides felis; in vitro, adult cat fleas fed 2 hours through parafilm membrane on citrated dog blood containing compound; percentage killed recorded after overnight storage; dose responses n=5; read-out: Flea feed ED80 results.
Procedure: The flea membrane feed test is used to measure the biological activities of the compounds claimed. The assay involves in vitro testing against Ctenocephalides felis conducted according to the following general procedure.
Fleas are cultured in vitro using dog blood. 25-30 adult Ctenocephalides felis (cat flea) were collected and placed in a test chamber (50 ml polystyrene tube with fine nylon mesh sealing the end). Citrated dog blood was prepared by adding aqueous sodium citrate solution (10 ml, 20% w/v, 20 g sodium citrate in 100 ml water) to dog blood (250 ml). Test compounds were dissolved in dimethylsulfoxide to give a working stock solution of 4 mg/ml. The stock solution (12.5 μl) was added to citrated dog blood (5 ml) to give an initial test concentration of 10 μg/ml. For testing at 30 µg/ml, working stock solutions of 12 mg/ml were prepared.
Citrated dog blood containing the test compound (5 ml, 100 μg/ml) was placed into a plastic Petri dish lid, which was kept at 37° C. on a heated pad. Parafilm was stretched over the open top to form a tight membrane for the fleas to feed through. The test chamber containing the fleas was placed carefully onto the parafilm membrane and the fleas commenced feeding.
The fleas were allowed to feed for 2 hours and the test chambers were then removed and stored overnight at room temperature.
The fleas were observed and the percentage of fleas killed recorded. Compounds were initially tested at 100 μg/ml, wherefrom relevant dose responses (100, 30, 10, 3, 1, 0.3, 0.1 μg/ml) were conducted and repeated n=5. Data was plotted to generate ED80, ED90 & ED95 values.
`CS(=O)(=O)C1(c2c(C#N)nn(-c3c(Cl)cc(S(F)(F)(F)(F)F)cc3Cl)c2N)CC1` [Example 1, 5-amino-1-[2,6-dichloro-4-pentafluorothiophenyl]-4-[1-(methylsulfonyl)cyclopropyl]-1H-pyrazole-3-carbonitrile] was tested, and the EC80 was at most 1 mg/L.
`N#Cc1nn(-c2c(Cl)cc(C(F)(F)F)cc2Cl)c(N)c1C1(C(N)=O)CC1` [Example 2, 1-{5-amino-3-cyano-1-[2,6-dichloro-4-(trifluoromethyl)phenyl]-1H-pyrazol-4-yl}cyclopropanecarboxamide] showed an EC80 of at most 1 mg/L.
With `N#Cc1nn(-c2c(Cl)cc(S(F)(F)(F)(F)F)cc2Cl)c(NCCF)c1C1(C(N)=O)CC1` [Example 16, 1-{3-cyano-1-[2,6-dichloro-4-pentafluorothiophenyl]-5-[(2-fluoroethyl)amino]-1H-pyrazol-4-yl}cyclopropanecarboxamide] the EC80 was at most 1 mg/L.
`N#Cc1nn(-c2c(Cl)cc(S(F)(F)(F)(F)F)cc2Cl)c(N)c1C1(C(N)=O)CC1(Cl)Cl` (stereo not shown) [Example 18, 1-{5-amino-3-cyano-1-[2,6-dichloro-4-pentafluorothiophenyl]-1H-pyrazol-4-yl}-2,2-dichlorocyclopropanecarboxamide] gave an EC80 of at most 1 mg/L.
For `N#Cc1nn(-c2c(Cl)cc(S(F)(F)(F)(F)F)cc2Cl)c(NCC2CC2)c1C1(C(=O)NCc2ccncc2)CC1` [Example 19, 1-{3-cyano-5-[(cyclopropylmethyl)amino]-1-[2,6-dichloro-4-pentafluorothiophenyl]-1H-pyrazol-4-yl}-N-(pyridin-4-ylmethyl)cyclopropanecarboxamide], the EC80 was at most 1 mg/L.
In the case of `CC(C)OC(=O)Nc1c(C2(C(N)=O)CC2)c(C#N)nn1-c1c(Cl)cc(S(F)(F)(F)(F)F)cc1Cl` [Example 20, isopropyl {4-[1-(aminocarbonyl)cyclopropyl]-3-cyano-1-[2,6-dichloro-4-pentafluorothiophenyl]-1H-pyrazol-5-yl}carbamate], the EC80 is reported as at most 1 mg/L.
Compound `N#Cc1nn(-c2c(Cl)cc(S(F)(F)(F)(F)F)cc2Cl)c(NC(=O)OCC2(CF)CC2)c1C1(C(N)=O)CC1` [Example 27, [1-(fluoromethyl)cyclopropyl]methyl {4-[1-(aminocarbonyl)cyclopropyl]-3-cyano-1-[2,6-dichloro-4-pentafluorothiophenyl]-1H-pyrazol-5-yl}carbamate] has an EC80 of at most 1 mg/L.
`CCOC(=O)Nc1c(C2(C(N)=O)CC2)c(C#N)nn1-c1c(Cl)cc(OC(F)(F)F)cc1Cl` [Example 37, ethyl {4-[1-(aminocarbonyl)cyclopropyl]-3-cyano-1-[2,6-dichloro-4-(trifluoromethoxy)phenyl]-1H-pyrazol-5-yl}carbamate] gave an EC80 of at most 1 mg/L.
With `N#Cc1nn(-c2c(Cl)cc(S(F)(F)(F)(F)F)cc2Cl)c(Cl)c1C1(C(N)=O)CC1` [Example 86, 1-{5-chloro-3-cyano-1-[2,6-dichloro-4-pentafluorothiophenyl]-1H-pyrazol-4-yl}cyclopropanecarboxamide] the EC80 was at most 1 mg/L.

Same assay, conditions: in vitro, adult cat fleas fed 2 hours through parafilm membrane on citrated dog blood containing compound; percentage killed recorded after overnight storage; dose responses n=5
For `N#Cc1nn(-c2c(Cl)cc(S(F)(F)(F)(F)F)cc2Cl)c(N)c1C1(C#N)CC1` [Example 11, 5-amino-4-(1-cyanocyclopropyl)-1-[2,6-dichloro-4-pentafluorothiophenyl]-1H-pyrazole-3-carbonitrile], the “Flea feed ED80 results” value was “≦1 μg/ml”.
For `N#Cc1nn(-c2c(Cl)cc(S(F)(F)(F)(F)F)cc2Cl)c(NCCC(N)=O)c1C1(C(N)=O)CC1` [Example 32, N˜3˜-{4-[1-(aminocarbonyl)cyclopropyl]-3-cyano-1-[2,6-dichloro-4-pentafluorothiophenyl]-1H-pyrazol-5-yl}-beta-alaninamide], the “Flea feed ED80 results” value was “≦1 μg/ml”.
`N#Cc1nn(-c2c(Cl)cc(S(F)(F)(F)(F)F)cc2Cl)c(NCC2CC2)c1C1(C(=O)NCc2ccccn2)CC1` [Example 45, 1-{3-cyano-5-[(cyclopropylmethyl)amino]-1-[2,6-dichloro-4-pentafluorothiophenyl]-1H-pyrazol-4-yl}-N-(pyridin-2-ylmethyl)cyclopropanecarboxamide] was tested, and the “Flea feed ED80 results” value was “≦1 μg/ml”.
With `N#Cc1nn(-c2c(Cl)cc(S(F)(F)(F)(F)F)cc2Cl)c(CNC(=O)OCC2CC2)c1C1(C(N)=O)CC1` [Example 101, cyclopropylmethyl {4-[1-(aminocarbonyl)cyclopropyl]-3-cyano-1-[2,6-dichloro-4-pentafluorothiophenyl]-1H-pyrazol-5-yl}methylcarbamate] the “Flea feed ED80 results” value was “≦1 μg/ml”.
